BindingDB's records for doi:10.1021/acs.jmedchem.9b01226 (Purdue University, 2020)

Legend:
[1] = target: T1, Proteasome subunit beta type-8 (Homo sapiens, UniProt P28062); experiment: Inhibition of immunoproteasome subunit LMP7 in human OPM1 cells assessed as reduction in cell viability incubated for 48 hrs by MTT assay
T1 sequence (P28062 whole entry): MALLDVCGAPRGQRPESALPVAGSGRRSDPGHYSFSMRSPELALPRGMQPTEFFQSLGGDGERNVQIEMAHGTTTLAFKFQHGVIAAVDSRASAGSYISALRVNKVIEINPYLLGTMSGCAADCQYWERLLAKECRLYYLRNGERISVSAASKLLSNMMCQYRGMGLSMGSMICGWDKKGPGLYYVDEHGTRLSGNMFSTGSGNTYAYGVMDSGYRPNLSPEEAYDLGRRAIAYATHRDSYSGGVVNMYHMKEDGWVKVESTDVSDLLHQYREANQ

[2] = target: T1, Proteasome subunit beta type-8; experiment: Inhibition of immunoproteasome subunit LMP7 in human MM.1S cells assessed as reduction in cell viability incubated for 48 hrs by MTT assay
[3] = target: T1, Proteasome subunit beta type-8; experiment: Inhibition of immunoproteasome subunit LMP7 in human RPMI8226 cells assessed as reduction in cell viability incubated for 48 hrs by MTT assay
[4] = target: T1, Proteasome subunit beta type-8; experiment: Inhibition of immunoproteasome subunit LMP7 in human LR5 cells assessed as reduction in cell viability incubated for 48 hrs by MTT assay
[5] = target: T1, Proteasome subunit beta type-8; experiment: Inhibition of immunoproteasome subunit LMP7 in human DOX40 cells assessed as reduction in cell viability incubated for 48 hrs by MTT assay
[6] = target: T1, Proteasome subunit beta type-8; experiment: Inhibition of immunoproteasome subunit LMP7 in human INA60 cells assessed as reduction in cell viability incubated for 48 hrs by MTT assay
[7] = target: T1, Proteasome subunit beta type-8; experiment: Inhibition of immunoproteasome subunit LMP7 in human MM.1R cells assessed as reduction in cell viability incubated for 48 hrs by MTT assay
[8] = target: T1, Proteasome subunit beta type-8; experiment: Inhibition of immunoproteasome subunit LMP7 in human KMS12PE cells assessed as reduction in cell viability incubated for 48 hrs by MTT assay
[9] = target: T1, Proteasome subunit beta type-8; experiment: Inhibition of immunoproteasome subunit […] in human OPM1 cells assessed as reduction in cell viability incubated for 48 hrs by MTT assay

Measured: IC50

CC1=C(C(=O)N[C@H](C)C(=O)N[C@@H](Cc2c[nH]c3ccccc23)C(=O)N[C@@H](Cc2ccccc2)C(=O)[C@@]2(C)CO2)Cc2ccccc21
3000 nM: all assays above
